Consider 1 compound from ChEMBL document CHEMBL1255472, “Population pharmacokinetics of micafungin in neonates and young infants” (Antimicrob Agents Chemother, 2010).

The test system of data set [1] is Candida albicans. In words: Antifungal activity against Candida albicans. The class given is functional.
Data set [2] can be described thus: Ratio of AUC in neonates with Candida albican infection to MIC for Candida albicans. The class given is functional.
Data set [3] in a line: AUC (0 to 24 hrs) in candidiasis patient at 8 mg/kg, iv by HPLC. In kind it is ADME, organism-based. Details: time < 24 hr, dose 8 mg/kg, route intravenous. Conditions: human, plasma.
The nature of data set [4]: AUC (0 to 24 hrs) in candidiasis patient at 10 mg/kg, iv by HPLC. On the set-up: time < 24 hr, dose 10 mg/kg, route intravenous. Conditions: human, plasma. In kind it is ADME, organism-based.
Data set [5] in a line: AUC (0 to 24 hrs) in candidiasis patient at 12 mg/kg, iv by HPLC. The class given is ADME, organism-based. Conditions: human, plasma. On the set-up: time < 24 hr, dose 12 mg/kg, route intravenous.
The nature of data set [6]: Volume of distribution in iv dosed adult human by HPLC. Conditions: in vivo. The class given is ADME, organism-based.
The nature of data set [7]: Volume of distribution in iv dosed human infant by HPLC. The class given is ADME, organism-based. Conditions: in vivo.
A short description of data set [8]: Dose normalized clearance in iv dosed adult human by HPLC. The class given is ADME, organism-based. Conditions: in vivo.

Structures are written as SMILES. Converted amounts (≈) assume the structure as drawn. Starred links: 1 amine or outer side, 2 acyl side, 3 side chain; linkers in the order of their positions; H or OH if unused. Positions of bridges follow the written chain, without caps; N, C: chain ends. Non-standard residues stand in square brackets, D forms with d. Residues, ends and D or L forms follow the SMILES beside them. *: point of attachment. hTyr(3S-OH,4S-OH,3'-OSO3H) = N[C@H](C(=O)O)[C@H](O)[C@@H](O)c1ccc(O)c(OS(=O)(=O)O)c1; Orn(4R-OH,5R-OH) = O=C([C@H](C[C@@H](O)[C@@H](O)N[*:3])N[*:1])[*:2]; Pro(3S-OH,4S-Me) = C[C@H]1CN[C@H](C(=O)O)[C@H]1O; X1 = CCCCCOc1ccc(-c2cc(-c3ccc(C(=O)*)cc3)no2)cc1; Gln(3R-OH) = NC(=O)C[C@@H](O)[C@H](N)C(=O)O; Hyp = O=C(O)[C@@H]1C[C@@H](O)CN1

With `CCCCCOc1ccc(-c2cc(-c3ccc(C(=O)N[C@H]4C[C@@H](O)[C@@H](O)NC(=O)[C@@H]5[C@@H](O)[C@@H](C)CN5C(=O)[C@H]([C@H](O)CC(N)=O)NC(=O)[C@H]([C@H](O)[C@@H](O)c5ccc(O)c(OS(=O)(=O)O)c5)NC(=O)[C@@H]5C[C@@H](O)CN5C(=O)[C@H]([C@@H](C)O)NC4=O)cc3)no2)cc1` [MICAFUNGIN] (X1-[Orn(4R-OH,5R-OH)]T[Hyp][hTyr(3S-OH,4S-OH,3'-OSO3H)][Gln(3R-OH)][Pro(3S-OH,4S-Me)]; lactam 1-C), the MIC (usually the least concentration at which growth counts as inhibited) in data set [1] amounted to 0.125 µg/mL (≈ 0.0984 µM). Also, in data set [2], the Ratio came out at 1330. Besides, the AUC(0-t) at 24 h in data set [3], in data set [4] and in data set [5] was less than 166 µg·h/mL in each case. Further, the Vd – broadly, a proportionality between amount in the body and measured concentration, not a real space – amounted to 10.4 L in data set [6] and 10.3 L in data set [7]. In addition, the clearance (in general, a measure of how efficiently the substance is removed, as volume per time) in data set [8] was 19.5 mL/min.
